Data as given in patent US8017786B2, “Substituted β-phenyl-α-hydroxy-propanoic acid, synthesis method and use thereof” (Northwest University, priority 2006, dated 2011).

How the values were obtained:
[1] = system: rats with middle cerebral artery occlusion; assay: Cerebral microcirculatory blood flow in rats with middle cerebral artery occlusion; assay type: in vivo, rat
Procedure: 60 SD rats with a body weight of 220±20 g were randomly divided into normal control group, model control group, salvianic acid injection group (ip. 1 mL/kg), and group of bornyl β-(3,4-dihydroxylphenyl)-α-hydroxylpropionate ester at a small, middle and large dose respectively (ip. 5, 15, and 35 mg/kg). The rats of normal group and model group were administered with equal-volume of physiologic saline by ip. The rats were anesthetized by intraperitoneal injection of 1% pentobarbital sodium at an amount of 40 mg/kg, then placed at supine position, head fixed, and cut skin along cervical middle line. Trachea cannula, was inserted into the rats and they were allowed to spontaneous respire. Right common jugular vein and common carotid artery were isolated and a suture was introduced for later use. Animals were fixed on a rat stereotaxic apparatus, a cranial window with a size of 6×8 mm was opened at the right temple with a dental drill, after hemostasis, cerebral dura mater was cut open with scissors to expose cerebral pia mater. The window was covered and sealed with glass and dental cement, and the laser probe of a laser-doppler microcirculatory blood flow meter was fixed on the cranial window. Then the animals were fixed at lateral position, the right common carotid artery was lifted, ligated at the proximal part and carefully cut with scissors, a nylon suture having a diameter of about 0.3 mm was introduced into the artery. The distance between the artery cut and the paropia of the rats was marked before the suture was introduced. […] When the suture arrived at middle cerebral artery, an abrupt decrease of the microcirculatory blood flow would be observed. After the observation of a decrease in the microcirculatory blood flow, the suture was further penetrated by about 1 mm, and the distal end of the cut and the suture in the artery were ligated securely. Spare suture was cut-off. After the end of the test, it was checked whether the nylon suture blocked the initiation site of the middle cerebral artery, and the data of any animal whose artery was not blocked were cancelled. The animals of the control group were not treated. After the cranial window was prepared, the probe of J I2200 type laser-doppler microcirculatory blood flow meter was fixed at the cranial window, and the probe was maintained without displacement and rotation during the whole test. The microcirculatory blood flows before ligation and 5, 15, 30, 45 and 60 min after ligation were recorded, and the data of the animals in the drug-treatment groups were recorded at the same time points. The mean microcirculatory blood flow observed within 1 min at each time point was designated as the microcirculatory blood flow of the respective time point.

[2] = system: rats with cardiac ischemia reperfusion (I/R) injury; assay: Myocardial infarction areas caused by cardiac muscle I/R; assay type: in vivo, rat; details: for aar/lv / nec/aar / nec/lv: 5 days, ischemia 30 min, reperfusion 30 min
Procedure: 52 SD rats having a body weight of 220±20 g were randomly divided into model control group, salviannic acid injection group (in 1 mL/kg), and group of bornyl β-(3,4-dihydroxylphenyl)-α-hydroxylpropionate ester at a small, middle and large dose (ip 5, 15, 35 mg/kg). The rats of the normal group and the model control group were ip administered with equal-volume of physiologic saline. The rats of all groups were administered for consecutive 5 days. When the rats were administered for the last time, they were simultaneously anesthetized with 1.5% pentobarbital sodium (ip 45 mg/kg), then a catheter was inserted into the right carotid artery, and connected via a transducer to an eight-channeled physiological recorder. Tracheal cannula was performed, and the ventilation rate was maintained at 60 times/min. The chest was opened, a 6/0 suture was used to form a loop at a site 1˜2 mm from the root of the anterior descending coronary artery, and a plastic pipe was introduced through the loop, then the loop was tightened up. The change of electrocardiogram was observed. An increase or decrease of ST indicated the success of ligation. The color of the myocardial tissue below the ligation suture became darker. 30 minutes later, the plastic pipe was pulled out to allow coronary artery blood flowing again and cause hyperemia of local tissue during reperfusion. For the groups subjected to ischemia for 30 min and reperfusion for 30 min, the myocardial infarction areas were recorded before the test, after ischemia for 1 min and 30 min, and after reperfusion for 30 min; for the groups subjected to ischemia for 30 min and reperfusion for 2 h, cardiac tissue samples were taken and fixed using 10% formalin, embedded with paraffin, serially sliced into sections with a thickness of 4 μm, and separately subjected to immunohistochemistry tests; the rats of the sham operation group were subjected only to the introduction of suture but their coronary arteries were not ligated.
After the rats were subjected to ischemia and reperfusion for 30 minutes, their anterior descending coronaries were ligated again, then they were sacrificed, their hearts were removed promptly, and 0.5 mL of 1% evans blue was injected into heart chambers via aorta to distinguish the ischemic regions and the non-ischemic regions. After the heart atrium and right ventricle were cut-off, the heart was refrigerated at −20° C. for 30 min, then placed in a tailor-made slice groove, and cut along the long axis to form 2 mm slices. The slices were immersed in 1% TTC phosphoric acid buffer solution (pH7.4), and incubated at 37° C. for 30 min to distinguish risky regions and necrotic regions. Then the slices were fixed with 10% formaldehyde for 24 h to enhance staining color for contrast photography. After the above treatment, the myocardial tissue was divided into: normal myocardia in blue, ischemic myocardia in light red, and necrotic myocardion in gray. A computer image analysis software was used to calculate the percentage of the area of the infarct myocardial region (nec) based on the area of the risky myocardial region (aar, i.e., ischemic myocardia, including ischemic infarct region and ischemic non-infarct region) (nec/aar), and the percentage of the area of the infarct myocardial region based on the whole area of the myocardia (nec/lv) to indicate the degree of infarct, as well as the percentage of the area of the risky myocardia based on the area of the left ventricle (aar/lv).

Q: For `CC1(C)C2CCC1(C)C(OC(=O)C(O)Cc1ccc(O)c(O)c1)C2` (stereo not drawn) [bornyl salvianate ester, bornyl β-(3,4-dihydroxylphenyl)-α-hydroxylpropionate ester], which Microcirculatory blood flow ([1]; 5 mg/kg ip, 5 min after ligation) is on record?
A: 11.4 ± 5.4 mL

Q: What about the Microcirculatory blood flow ([1]; 5 mg/kg ip, 15 min after ligation) of the same compound?
A: 12.4 ± 4.6 mL

Q: And the Microcirculatory blood flow ([1]; 5 mg/kg ip, 30 min after ligation)?
A: 12.9 ± 5.1 mL

Q: And the Microcirculatory blood flow ([1]; 5 mg/kg ip, 45 min after ligation)?
A: 16.1 ± 4.1 mL

Q: What about the Microcirculatory blood flow ([1]; 5 mg/kg ip, 60 min after ligation) of the same compound?
A: 16.0 ± 6.9 mL

Q: What about the Microcirculatory blood flow ([1]; 15 mg/kg ip, 5 min after ligation) of the same compound?
A: 9.4 ± 3.7 mL

Q: And the Microcirculatory blood flow ([1]; 15 mg/kg ip, 15 min after ligation)?
A: 12.8 ± 5.6 mL

Q: And the Microcirculatory blood flow ([1]; 15 mg/kg ip, 30 min after ligation)?
A: 20.7 ± 3.2 mL

Q: What about the Microcirculatory blood flow ([1]; 15 mg/kg ip, 45 min after ligation) of the same compound?
A: 25.0 ± 5.2 mL

Q: What about the Microcirculatory blood flow ([1]; 15 mg/kg ip, 60 min after ligation) of the same compound?
A: 24.4 ± 4.8 mL

Q: And the “cerebral microcirculatory blood flow (in words)” value ([1]; 15 mg/kg, 30 minutes after the administration)?
A: increased slightly

Q: And the Microcirculatory blood flow ([1]; 35 mg/kg ip, 5 min after ligation)?
A: 10.8 ± 2.7 mL

Q: And the Microcirculatory blood flow ([1]; 35 mg/kg ip, 15 min after ligation)?
A: 19.4 ± 5.1 mL

Q: What about the Microcirculatory blood flow ([1]; 35 mg/kg ip, 30 min after ligation) of the same compound?
A: 32.7 ± 6.2 mL

Q: And the Microcirculatory blood flow ([1]; 35 mg/kg ip, 45 min after ligation)?
A: 35.4 ± 8.2 mL

Q: And the Microcirculatory blood flow ([1]; 35 mg/kg ip, 60 min after ligation)?
A: 35.2 ± 5.8 mL

Q: And the “cerebral microcirculatory blood flow (in words)” value ([1]; 35 mg/kg, 15 minutes after the administration)?
A: increased slightly

Q: What about the aar/lv ([2]; 5 mg/kg ip) of the same compound?
A: 64.09 ± 18.10%

Q: What about the nec/aar ([2]; 5 mg/kg ip) of the same compound?
A: 61.72 ± 14.65%

Q: What about the nec/lv ([2]; 5 mg/kg ip) of the same compound?
A: 48.45 ± 17.11%

Q: And the aar/lv ([2]; 15 mg/kg ip)?
A: 63.02 ± 15.98%

Q: And the nec/aar ([2]; 15 mg/kg ip)?
A: 62.63 ± 13.82%

Q: What about the nec/lv ([2]; 15 mg/kg ip) of the same compound?
A: 48.23 ± 15.34%

Q: What about the aar/lv ([2]; 35 mg/kg ip) of the same compound?
A: 51.97 ± 13.04 %

Q: What about the nec/aar ([2]; 35 mg/kg ip) of the same compound?
A: 50.01 ± 9.03 %

Q: And the nec/lv ([2]; 35 mg/kg ip)?
A: 40.21 ± 12.65 %

Q: And the “decrease of aar/lv in comparison with the model control group” value ([2]; large dose group (35 mg/kg ip))?
A: 22.5%

Q: And the “decrease of nec/aar in comparison with the model control group” value ([2]; large dose group (35 mg/kg ip))?
A: 22%

Q: And the “decrease of nec/lv in comparison with the model control group” value ([2]; large dose group (35 mg/kg ip))?
A: 20.4%
